Test results as given in patent publication US10093630B2, “Pyrazole compounds and methods of making and using same” (ABIDE THERAPEUTICS, INC., priority 2014, dated 2018).

Experiments:
Test in all cases: In vitro competitive activity-based protein profiling (gel-based, FP-Rh or HT-01 probe)
Format in all cases: biochemical
FAAH = target: T1, FAAH (Mus musculus, UniProt O08914); settings: for inhibition at 1 µM: 1 μM inhibitor, read-out: % Inhibition at 1 μM, B = FAAH; for inhibition at 10 µM: 10 μM inhibitor, read-out: % Inhibition at 10 μM, B = FAAH; for IC50: mouse brain membrane fraction or cell lysates, 30 min preincubation at 37° C., read-out: Mouse (IC50 value, nM) FAAH
T1 construct: Proteomes (mouse brain membrane fraction or cell lysates); from tissue; host or cells: mouse brain membrane fraction (or cell lysates, not specified)
T1 sequence (O08914 1-579): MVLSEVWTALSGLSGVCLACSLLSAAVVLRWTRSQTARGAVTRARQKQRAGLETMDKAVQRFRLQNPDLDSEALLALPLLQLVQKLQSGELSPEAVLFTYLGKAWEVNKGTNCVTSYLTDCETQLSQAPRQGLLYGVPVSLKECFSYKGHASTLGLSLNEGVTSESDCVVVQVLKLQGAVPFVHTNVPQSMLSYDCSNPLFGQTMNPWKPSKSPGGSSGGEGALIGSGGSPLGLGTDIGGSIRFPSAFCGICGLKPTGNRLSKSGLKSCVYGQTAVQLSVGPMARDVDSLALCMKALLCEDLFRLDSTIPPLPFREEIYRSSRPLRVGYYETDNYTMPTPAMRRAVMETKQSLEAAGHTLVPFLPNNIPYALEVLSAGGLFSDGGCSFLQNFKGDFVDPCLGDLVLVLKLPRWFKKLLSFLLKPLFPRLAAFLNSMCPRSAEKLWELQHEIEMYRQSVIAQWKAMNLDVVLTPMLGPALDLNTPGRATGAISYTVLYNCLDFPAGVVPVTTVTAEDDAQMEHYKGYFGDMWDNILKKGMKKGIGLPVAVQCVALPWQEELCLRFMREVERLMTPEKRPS
Procedure: (§1) In Vitro Competitive Activity-Based Protein Profiling.
(§2) Proteomes (mouse brain membrane fraction or cell lysates) (50 μL, 1.0 mg/mL total protein concentration) were preincubated with varying concentrations of inhibitors at 37° C. After 30 min, FP-Rh or HT-01 ([…], 50 μM in DMSO) was added and the mixture was incubated for another 30 min at 37° C. Reactions were quenched with SDS loading buffer (15 μL—4×) and run on SDS-PAGE. Following gel imaging, serine hydrolase activity was determined by measuring fluorescent intensity of gel bands corresponding to MAGL, ABHD6, FAAH, and PLA2G7 using ImageJ 1.43u software.

MAGL = target: T2, MAGL (Mus musculus, UniProt O35678); settings: for inhibition at 1 µM: 1 μM inhibitor; for inhibition at 10 µM: 10 μM inhibitor; for IC50: mouse brain membrane fraction or cell lysates, 30 min preincubation at 37° C., read-out: Mouse (IC50 value, nM) MAGL
T2 construct: Proteomes (mouse brain membrane fraction or cell lysates); from tissue; host or cells: mouse brain membrane fraction (or cell lysates, not specified)
T2 sequence (O35678 1-303): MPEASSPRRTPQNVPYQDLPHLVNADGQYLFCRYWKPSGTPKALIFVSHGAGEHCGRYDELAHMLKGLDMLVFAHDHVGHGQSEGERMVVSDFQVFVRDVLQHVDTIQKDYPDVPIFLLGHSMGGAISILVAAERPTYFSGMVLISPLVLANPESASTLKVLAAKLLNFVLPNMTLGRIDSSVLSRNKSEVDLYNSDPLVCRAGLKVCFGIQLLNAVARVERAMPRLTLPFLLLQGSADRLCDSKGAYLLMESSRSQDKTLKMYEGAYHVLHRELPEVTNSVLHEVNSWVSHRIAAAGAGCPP
Procedure: as §1, §2

ABHD6 = target: T3, ABHD6 (Mus musculus, UniProt Q8R2Y0); settings: for inhibition at 1 µM: 1 μM inhibitor, read-out: % Inhibition at 1 μM, C = ABHD6; for inhibition at 10 µM: 10 μM inhibitor, read-out: % Inhibition at 10 μM, C = ABHD6; for IC50: mouse brain membrane fraction or cell lysates, 30 min preincubation at 37° C., read-out: Mouse (IC50 value, nM) ABHD6
T3 construct: Proteomes (mouse brain membrane fraction or cell lysates); from tissue; host or cells: mouse brain membrane fraction (or cell lysates, not specified)
T3 sequence (Q8R2Y0 1-336): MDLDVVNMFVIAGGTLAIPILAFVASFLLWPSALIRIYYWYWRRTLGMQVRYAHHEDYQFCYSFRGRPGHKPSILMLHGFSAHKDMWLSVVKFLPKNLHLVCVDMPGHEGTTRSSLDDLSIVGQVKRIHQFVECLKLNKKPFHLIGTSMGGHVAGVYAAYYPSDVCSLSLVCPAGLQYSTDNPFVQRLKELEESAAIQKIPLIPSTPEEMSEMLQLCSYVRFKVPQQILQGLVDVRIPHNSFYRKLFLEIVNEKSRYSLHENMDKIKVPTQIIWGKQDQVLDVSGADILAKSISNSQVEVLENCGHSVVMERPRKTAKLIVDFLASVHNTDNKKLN
Procedure: as §1, §2

PLA2G7 = target: T4, PLA2G7 (Mus musculus, UniProt Q60963); settings: for inhibition at 1 µM: 1 μM inhibitor, read-out: % Inhibition at 1 μM, D = PLA2G7; for inhibition at 10 µM: 10 μM inhibitor, read-out: % Inhibition at 10 μM, D = PLA2G7
T4 construct: Proteomes (mouse brain membrane fraction or cell lysates); from tissue; host or cells: mouse brain membrane fraction (or cell lysates, not specified)
T4 sequence (Q60963 22-440): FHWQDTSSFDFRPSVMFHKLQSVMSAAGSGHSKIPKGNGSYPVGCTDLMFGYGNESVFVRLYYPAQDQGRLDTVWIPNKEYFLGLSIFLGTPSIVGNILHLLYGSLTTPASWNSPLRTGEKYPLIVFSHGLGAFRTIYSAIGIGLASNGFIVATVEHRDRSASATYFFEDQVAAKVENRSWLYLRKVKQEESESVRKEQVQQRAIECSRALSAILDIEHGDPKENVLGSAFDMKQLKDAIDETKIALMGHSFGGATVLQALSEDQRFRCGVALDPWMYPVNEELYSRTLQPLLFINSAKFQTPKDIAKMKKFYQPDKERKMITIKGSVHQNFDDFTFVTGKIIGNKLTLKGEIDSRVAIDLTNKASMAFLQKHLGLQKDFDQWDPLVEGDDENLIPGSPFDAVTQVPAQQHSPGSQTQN
Procedure: as §1, §2

| SMILES | inhibition at 1 µM (FAAH) [%] | inhibition at 10 µM (FAAH) [%] | inhibition at 1 µM (MAGL) [%] | inhibition at 10 µM (MAGL) [%] | inhibition at 1 µM (ABHD6) [%] | inhibition at 10 µM (ABHD6) [%] | inhibition at 1 µM (PLA2G7) [%] | inhibition at 10 µM (PLA2G7) [%] | IC50 (FAAH) [nM] | IC50 (MAGL) [nM] | IC50 (ABHD6) [nM] |
| --- | --- | --- | --- | --- | --- | --- | --- | --- | --- | --- | --- |
| O=C(N1CCCCC1)n1cccn1 [Example 1, Piperidin-1-yl(1H-pyrazol-1-yl)methanone] | < 25 | > 75 | < 25 | 25 to 75 | < 25 | > 75 | < 25 | 25 to 75 | – | – | – |
| Cc1cnn(C(=O)N2CCCCC2)c1 [Example 2, (4-Methyl-1H-pyrazol-1-yl)(piperidin-1-yl)methanone] | < 25 | > 75 | < 25 | 25 to 75 | 25 to 75 | > 75 | < 25 | > 75 | – | – | – |
| N#Cc1cnn(C(=O)N2CCCCC2)c1 [Example 3, 1-(Piperidine-1-carbonyl)-1H-pyrazole-4-carbonitrile] | > 75 | > 75 | > 75 | > 75 | > 75 | > 75 | > 75 | > 75 | – | – | – |
| Cc1cnn(C(=O)N2CCN(C(c3ccc(Cl)cc3)c3ccc(Cl)cc3)CC2)c1 [Example 117, (4-(Bis(4-chlorophenyl)methyl)piperazin-1-yl)(4-methyl-1H-pyrazol-1-yl)methanone] | < 25 | < 25 | > 75 | > 75 | < 25 | > 75 | – | – | > 1000 | < 100 | > 1000 |
| O=C(N1CCN(C(c2ccc(Cl)cc2)c2ccc(Cl)cc2)CC1)n1cc(-c2ccccc2)cn1 [Example 119, (4-(Bis(4-chlorophenyl)methyl)piperazin-1-yl)(4-phenyl-1H-pyrazol-1-yl)methanone] | < 25 | < 25 | 25 to 75 | > 75 | < 25 | > 75 | – | – | – | – | – |
| CC(C)c1cnn(C(=O)N2CCN(C(c3ccc(Cl)cc3)c3ccc(Cl)cc3)CC2)c1 [Example 120, (4-(Bis(4-chlorophenyl)methyl)piperazin-1-yl)(4-isopropyl-1H-pyrazol-1-yl)methanone] | < 25 | < 25 | 25 to 75 | > 75 | 25 to 75 | > 75 | – | – | – | – | – |
| Cc1cnn(C(=O)N(C)CCN(C)S(C)(=O)=O)c1 [Example 196, N,4-Dimethyl-N-(2-(N-methylmethylsulfonamido)ethyl)-1H-pyrazole-1-carboxamide] | – | < 25 | – | < 25 | – | < 25 | – | – | – | – | – |

Next, values leading:

| inhibition at 1 µM (FAAH) [%] | inhibition at 10 µM (FAAH) [%] | inhibition at 1 µM (MAGL) [%] | inhibition at 10 µM (MAGL) [%] | inhibition at 1 µM (ABHD6) [%] | inhibition at 10 µM (ABHD6) [%] | inhibition at 1 µM (PLA2G7) [%] | inhibition at 10 µM (PLA2G7) [%] | IC50 (FAAH) [nM] | IC50 (MAGL) [nM] | IC50 (ABHD6) [nM] | SMILES |
| --- | --- | --- | --- | --- | --- | --- | --- | --- | --- | --- | --- |
| 25 to 75 | > 75 | > 75 | > 75 | > 75 | > 75 | – | – | > 1000 | < 100 | 100 to 1000 | O=C(N1CCN(Cc2c(N3CCCC3)cccc2C(F)(F)F)CC1)n1cc(F)cn1 [Example 113, (4-Fluoro-1H-pyrazol-1-yl)(4-(2-(pyrrolidin-1-yl)-6-(trifluoromethyl)benzyl)piperazin-1-yl)methanone] |
| < 25 | 25 to 75 | < 25 | < 25 | > 75 | > 75 | – | – | – | – | 100 to 1000 | Cc1ccccc1-c1cnn(C(=O)N2CCN(Cc3c(N4CCCC4)cccc3C(F)(F)F)CC2)c1 [Example 114, (4-(2-(Pyrrolidin-1-yl)-6-(trifluoromethyl)benzyl)piperazin-1-yl)(4-(o-tolyl)-1H-pyrazol-1-yl)methanone] |
| < 25 | > 75 | > 75 | > 75 | > 75 | > 75 | – | – | > 1000 | < 100 | 100 to 1000 | O=C(N1CCN(C(c2ccc(Cl)cc2)c2ccc(Cl)cc2)CC1)n1cc(C(F)(F)F)cn1 [Example 118, (4-(Bis(4-chlorophenyl)methyl)piperazin-1-yl)(4-(trifluoromethyl)-1H-pyrazol-1-yl)methanone] |
| < 25 | > 75 | > 75 | > 75 | < 25 | > 75 | – | – | > 1000 | < 100 | > 1000 | O=C(N1CCN(C(c2ccc(Cl)cc2)c2ccc(Cl)cc2)CC1)n1cc(F)cn1 [Example 121, (4-(Bis(4-chlorophenyl)methyl)piperazin-1-yl)(4-fluoro-1H-pyrazol-1-yl)methanone] |
| < 25 | – | > 75 | – | > 75 | – | – | – | > 1000 | < 100 | 100 to 1000 | O=C(N1CCN(Cc2ccc(C(F)(F)F)cc2N2CCCC2)CC1)n1cc(Cl)cn1 [Example 125, (4-Chloro-1H-pyrazol-1-yl)(4-(2-(pyrrolidin-1-yl)-4-(trifluoromethyl)benzyl)piperazin-1-yl)methanone] |
| > 75 | – | > 75 | – | > 75 | – | – | – | 100 to 1000 | < 100 | 100 to 1000 | O=C(N1CCN(Cc2ccc(C(F)(F)F)cc2N2CCCC2)CC1)n1cc(F)cn1 [Example 126, (4-Fluoro-1H-pyrazol-1-yl)(4-(2-(pyrrolidin-1-yl)-4-(trifluoromethyl)benzyl)piperazin-1-yl)methanone] |
| – | < 25 | – | < 25 | – | 25 to 75 | – | – | – | – | – | CC(=O)N1CCCN(C(=O)n2cc(Cl)cn2)CC1 [Example 188, 1-(4-(4-Chloro-1H-pyrazole-1-carbonyl)-1,4-diazepan-1-yl)ethanone] |
| – | < 25 | – | < 25 | – | < 25 | – | – | – | – | – | CN1CCCN(C(=O)n2cc(Cl)cn2)CC1 [Example 190, (4-Chloro-1H-pyrazol-1-yl)(4-methyl-1,4-diazepan-1-yl)methanone] |
